Reference: the supplement of paper PMC11208160

test: recombinant UMI read abundance after kanamycin selection (control-corrected) (log10(CPM+1)); higher = more efficient recombination; extreme values may be limits of the assay; sequences stand for … in AGTGCAGAGAAAATCGGCCAGTTTTCTCTGCCTGCAGTCCGCATGCCGTGGGACCCCTTGGGTTCTAACCTGTTGCCTAGATTTATGCAGCGGACTGCCTTTCTCCCAAAGTGATAAACCGG…AGGTTGGTTTCACT; site = the 11-nt donor
Method in brief: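 Values, expressed as log10(CPM+1), derive from recombinant UMI counts converted to CPM, averaged across replicates and scaled by control-derived factors. Plating was with IPTG (0.07 mM) plus kanamycin or unselected, two replicates each. The screen pooled donor and donor-binding-loop pairs for the IS621 bridge recombinase in Escherichia coli.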
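Further: IS621 bridge recombinase in Escherichia coli cells against a fixed T5 target plasmid.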

Row | Sequence | recombinant UMI read abundance (log10)
1 | GCGAAGACATGGACCGGTTTTCCCGGTAATCCGTATTTGCT (site GCGAATACTAG) | 0
2 | GCGAAGACATGGACCGGTTTTCCCGGTAATCCGTATTTGGG (site GCGAAGACTCC) | 0.479
3 | GCGAAGACATGGACCGGTTTTCCCGGTAATCCGTATTTGGG (site GCGAAGCCTCC) | 0
4 | GCGAAGACATGGACCGGTTTTCCCGGTAATCCGTATTTGGG (site GCGAAGGCTCC) | 0.287
5 | GCGAAGACATGGACCGGTTTTCCCGGTAATCCGTATTTGGG (site GCGAAGTCTCC) | 0.439
6 | GCGAAGCCATGGACCGGTTTTCCCGGTAATCCGTATTTGGA (site GCGAAGCCTAC) | 0.00917
7 | GCGAAGCCATGGACCGGTTTTCCCGGTAATCCGTATTTGGA (site GCGAAGCCTCC) | 0.00526
8 | GCGAAGCCATGGACCGGTTTTCCCGGTAATCCGTATTTGGA (site GCGAAGCCTGC) | 0
9 | GCGAAGCCATGGACCGGTTTTCCCGGTAATCCGTATTTGGA (site GCGAAGCCTTC) | 0.24
10 | GCGAAGCCATGGACCGGTTTTCCCGGTAATCCGTATTTGGC (site GCGAAGCCTAC) | 0.0106
11 | GCGAAGCCATGGACCGGTTTTCCCGGTAATCCGTATTTGGC (site GCGAAGCCTCC) | 0
12 | GCGAAGCCATGGACCGGTTTTCCCGGTAATCCGTATTTGGC (site GCGAAGCCTGC) | 0
13 | GCGAAGCCATGGACCGGTTTTCCCGGTAATCCGTATTTGGC (site GCGAAGCCTTC) | 0.664
14 | GCGACACCATGGACCGGTTTTCCCGGTAATCCGTATTTGTC (site GCGACACCTGA) | 0
15 | GCGACATCATGGACCGGTTTTCCCGGTAATCCGTATTTGTG (site GCGACATCTCA) | 1.78
16 | GCGACCACATGGACCGGTTTTCCCGGTAATCCGTATTTGTT (site GCGACCACTAA) | 0.823
17 | GCGACGCCATGGACCGGTTTTCCCGGTAATCCGTATTTGTA (site GCAACGCCTTA) | 0.542
18 | GCGACGCCATGGACCGGTTTTCCCGGTAATCCGTATTTGTA (site GCCACGCCTTA) | 0.0222
19 | GCGACGCCATGGACCGGTTTTCCCGGTAATCCGTATTTGTA (site GCGACGCCTTA) | 0.398
20 | GCGACGCCATGGACCGGTTTTCCCGGTAATCCGTATTTGTA (site GCTACGCCTTA) | 0.019
21 | GCGACGGCATGGACCGGTTTTCCCGGTAATCCGTATTTGTC (site GCGACGGCTGA) | 1.84
22 | GCGAGCACATGGACCGGTTTTCCCGGTAATCCGTATTTGGC (site GCGAGCACTGC) | 3.27
23 | GCGAGCGCATGGACCGGTTTTCCCGGTAATCCGTATTTGTC (site GCGAGCGCTGA) | 2.69

Row | Sequence | recombinant UMI read abundance (log10)
24 | GCGAGGCCATGGACCGGTTTTCCCGGTAATCCGTATTTGGG (site GCGAAGCCTCC) | 0.0133
25 | GCGAGGCCATGGACCGGTTTTCCCGGTAATCCGTATTTGGG (site GCGACGCCTCC) | 0.022
26 | GCGAGGCCATGGACCGGTTTTCCCGGTAATCCGTATTTGGG (site GCGAGGCCTCC) | 0.0117
27 | GCGAGGCCATGGACCGGTTTTCCCGGTAATCCGTATTTGGG (site GCGATGCCTCC) | 0.0249
28 | GCGAGGGCATGGACCGGTTTTCCCGGTAATCCGTATTTGCC (site GCGAGGGCTGG) | 2.23
29 | GCGATAGCATGGACCGGTTTTCCCGGTAATCCGTATTTGTC (site GCGATAGCTGA) | 2.34
30 | GCGCCCACATGGACCGGTTTTCCCGGTAATCCGTATTTGGA (site GCGCCCACTTC) | 0.365
31 | GCGCGCACATGGACCGGTTTTCCCGGTAATCCGTATTTGCT (site GCGCGCACTAG) | 2.68
32 | GCGCTGACATGGACCGGTTTTCCCGGTAATCCGTATTTGAG (site GCGCTGACTCT) | 1.62
33 | GCGGAAACATGGACCGGTTTTCCCGGTAATCCGTATTTGCT (site GCGAAAACTAG) | 0
34 | GCGGAAACATGGACCGGTTTTCCCGGTAATCCGTATTTGCT (site GCGCAAACTAG) | 1.5
35 | GCGGAAACATGGACCGGTTTTCCCGGTAATCCGTATTTGCT (site GCGGAAACTAG) | 2.19
36 | GCGGAAACATGGACCGGTTTTCCCGGTAATCCGTATTTGCT (site GCGTAAACTAG) | 1.86
37 | GCGGAGGCATGGACCGGTTTTCCCGGTAATCCGTATTTGAA (site GCGGAGGCTTT) | 1.91
38 | GCGGTAACATGGACCGGTTTTCCCGGTAATCCGTATTTGAT (site GCGGTAACTAT) | 2.46
39 | GCGTAAACATGGACCGGTTTTCCCGGTAATCCGTATTTGCT (site GCGAAAACTAG) | 0
40 | GCGTAAACATGGACCGGTTTTCCCGGTAATCCGTATTTGCT (site GCGCAAACTAG) | 1.82
41 | GCGTAAACATGGACCGGTTTTCCCGGTAATCCGTATTTGCT (site GCGGAAACTAG) | 0.309
42 | GCGTAAACATGGACCGGTTTTCCCGGTAATCCGTATTTGCT (site GCGTAAACTAG) | 2.73
43 | GCGTACCCATGGACCGGTTTTCCCGGTAATCCGTATTTGAG (site GCGTACCCTCT) | 0.023
44 | GCGTACTCATGGACCGGTTTTCCCGGTAATCCGTATTTGAC (site GCGTACTCTGT) | 3.44
45 | GCGTCAACATGGACCGGTTTTCCCGGTAATCCGTATTTGGT (site GCGTCAACTAC) | 0.129
46 | GCGTTAGCATGGACCGGTTTTCCCGGTAATCCGTATTTGTG (site ACGTTAGCTCA) | 0.84

Row | Sequence | recombinant UMI read abundance (log10)
47 | GCGTTAGCATGGACCGGTTTTCCCGGTAATCCGTATTTGTG (site CCGTTAGCTCA) | 0.885
48 | GCGTTAGCATGGACCGGTTTTCCCGGTAATCCGTATTTGTG (site GCGTTAGCTCA) | 1.75
49 | GCGTTAGCATGGACCGGTTTTCCCGGTAATCCGTATTTGTG (site TCGTTAGCTCA) | 0.669
50 | GCGTTTCCATGGACCGGTTTTCCCGGTAATCCGTATTTGCT (site GCGTTTCCTAG) | 1.81
51 | GCTAAAGCATGGACCGGTTTTCCCGGTAATCCGTATTTGAT (site ACTAAAGCTAT) | 0.901
52 | GCTAAAGCATGGACCGGTTTTCCCGGTAATCCGTATTTGAT (site CCTAAAGCTAT) | 1.04
53 | GCTAAAGCATGGACCGGTTTTCCCGGTAATCCGTATTTGAT (site GCTAAAGCTAT) | 1.92
54 | GCTAAAGCATGGACCGGTTTTCCCGGTAATCCGTATTTGAT (site TCTAAAGCTAT) | 0.378
55 | GCTAATACATGGACCGGTTTTCCCGGTAATCCGTATTTGGC (site ACTAATACTGC) | 0
56 | GCTAATACATGGACCGGTTTTCCCGGTAATCCGTATTTGGC (site CCTAATACTGC) | 0.772
57 | GCTAATACATGGACCGGTTTTCCCGGTAATCCGTATTTGGC (site GCTAATACTGC) | 0.0276
58 | GCTAATACATGGACCGGTTTTCCCGGTAATCCGTATTTGGC (site TCTAATACTGC) | 0.548
59 | GCTACAACATGGACCGGTTTTCCCGGTAATCCGTATTTGAG (site GCTACAACTCT) | 0.921
60 | GCTACGCCATGGACCGGTTTTCCCGGTAATCCGTATTTGCG (site GCTACGCCTCG) | 0.00779
61 | GCTACTGCATGGACCGGTTTTCCCGGTAATCCGTATTTGAG (site GCTACTGCTCT) | 1.49
62 | GCTACTGCATGGACCGGTTTTCCCGGTAATCCGTATTTGCC (site ACTACTGCTGG) | 1.44
63 | GCTACTGCATGGACCGGTTTTCCCGGTAATCCGTATTTGCC (site CCTACTGCTGG) | 0.983
64 | GCTACTGCATGGACCGGTTTTCCCGGTAATCCGTATTTGCC (site GATACTGCTGG) | 0
65 | GCTACTGCATGGACCGGTTTTCCCGGTAATCCGTATTTGCC (site GCAACTGCTGG) | 0
66 | GCTACTGCATGGACCGGTTTTCCCGGTAATCCGTATTTGCC (site GCCACTGCTGG) | 0.445
67 | GCTACTGCATGGACCGGTTTTCCCGGTAATCCGTATTTGCC (site GCGACTGCTGG) | 0
68 | GCTACTGCATGGACCGGTTTTCCCGGTAATCCGTATTTGCC (site GCTAATGCTGG) | 0
